According to ChEMBL document CHEMBL2380311 (Bioorg Med Chem Lett, 2013):
Calls of active or inactive are those of the source. No cut-off for these calls is given here.

What was measured:
Cholinesterase = Cholinesterase (Equus caballus, UniProt P81908)
Description: Inhibition of equine serum BChE using butyrylthiocholine iodide as substrate after 5 mins by Ellman's method

Acetylcholinesterase = Acetylcholinesterase (Electrophorus electricus, UniProt O42275)
Description: Inhibition of electric eel AChE using acetylthiocholine iodide as substrate after 5 mins by Ellman's method

[1] = molecular target: Cholinesterase (Equus caballus) (UniProt P81908); test: Mixed-type inhibition of equine serum BChE using butyrylthiocholine iodide as substrate by Lineweaver-Burk reciprocal plot analysis
Chain of Cholinesterase (Equus caballus) (P81908 whole entry): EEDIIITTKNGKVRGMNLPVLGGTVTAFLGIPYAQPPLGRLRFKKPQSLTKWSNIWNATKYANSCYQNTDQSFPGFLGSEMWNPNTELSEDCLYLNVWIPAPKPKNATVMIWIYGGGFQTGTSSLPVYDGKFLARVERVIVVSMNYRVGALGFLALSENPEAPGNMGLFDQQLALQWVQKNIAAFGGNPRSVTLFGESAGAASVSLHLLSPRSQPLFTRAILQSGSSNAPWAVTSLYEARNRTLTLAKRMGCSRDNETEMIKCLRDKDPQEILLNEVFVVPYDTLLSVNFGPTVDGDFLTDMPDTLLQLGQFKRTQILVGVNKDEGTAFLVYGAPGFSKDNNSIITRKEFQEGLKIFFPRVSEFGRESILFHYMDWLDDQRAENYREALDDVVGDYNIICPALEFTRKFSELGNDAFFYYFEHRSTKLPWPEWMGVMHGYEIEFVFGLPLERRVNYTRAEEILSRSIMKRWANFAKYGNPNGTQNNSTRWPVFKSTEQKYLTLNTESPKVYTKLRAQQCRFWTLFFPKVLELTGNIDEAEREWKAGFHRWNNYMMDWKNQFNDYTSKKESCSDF

Chain of Acetylcholinesterase (O42275 whole entry): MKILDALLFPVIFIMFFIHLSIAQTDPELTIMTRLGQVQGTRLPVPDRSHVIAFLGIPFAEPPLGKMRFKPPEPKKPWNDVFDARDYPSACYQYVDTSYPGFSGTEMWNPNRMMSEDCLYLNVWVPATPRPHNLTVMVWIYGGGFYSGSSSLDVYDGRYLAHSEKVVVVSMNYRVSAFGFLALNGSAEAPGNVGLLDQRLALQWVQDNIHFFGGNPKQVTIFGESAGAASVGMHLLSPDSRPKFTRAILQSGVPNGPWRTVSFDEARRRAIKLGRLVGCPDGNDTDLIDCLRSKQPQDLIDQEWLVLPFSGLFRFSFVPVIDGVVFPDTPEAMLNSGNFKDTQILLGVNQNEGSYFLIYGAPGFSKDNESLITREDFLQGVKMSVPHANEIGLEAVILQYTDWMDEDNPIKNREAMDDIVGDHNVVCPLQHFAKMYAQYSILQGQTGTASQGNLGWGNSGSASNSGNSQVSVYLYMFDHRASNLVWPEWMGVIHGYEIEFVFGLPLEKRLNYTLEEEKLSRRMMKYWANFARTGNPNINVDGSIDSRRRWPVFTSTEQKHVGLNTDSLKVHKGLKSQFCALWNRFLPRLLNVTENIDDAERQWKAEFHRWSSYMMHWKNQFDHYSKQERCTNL
Chain of Cholinesterase (P81908 whole entry): as the sequence (P81908 whole entry) above

Row | Structure (SMILES) | IC50 (Cholinesterase) [nM] | IC50 (Acetylcholinesterase) [nM] | inhibition [1]
1 | CC(C(=O)NCCCNc1c2c(nc3ccccc13)CCCC2)c1ccc(-c2ccc(OCCCCCCO[N+](=O)[O-])cc2)c(F)c1 (stereo unspecified) | 8.1 | 1010 | 
2 | CC(C(=O)NCCCNc1c2c(nc3ccccc13)CCCC2)c1ccc(-c2ccc(OCCCCO[N+](=O)[O-])cc2)c(F)c1 (stereo unspecified) | 7.9 | 357 | 
3 | CC(C(=O)NCCCNc1c2c(nc3ccccc13)CCCC2)c1ccc(-c2ccc(OCCCO[N+](=O)[O-])cc2)c(F)c1 (stereo unspecified) | 8.6 | 189 | 
4 | CC(C(=O)NCCCCNc1c2c(nc3ccccc13)CCCC2)c1ccc(-c2ccc(OCCCO[N+](=O)[O-])cc2)c(F)c1 (stereo unspecified) | 10.6 | 261 | 
5 | CC(C(=O)NCCNc1c2c(nc3ccccc13)CCCC2)c1ccc(-c2ccc(OCCCCCCO[N+](=O)[O-])cc2)c(F)c1 (stereo unspecified) | 7.6 | 4310 | Active
6 | CC(C(=O)NCCCCNc1c2c(nc3ccccc13)CCCC2)c1ccc(-c2ccc(OCCCCCCO[N+](=O)[O-])cc2)c(F)c1 (stereo unspecified) | 3.9 | 1460 | 
7 | CC(C(=O)NCCNc1c2c(nc3ccccc13)CCCC2)c1ccc(-c2ccccc2)c(F)c1 (stereo unspecified) | 58.7 | 715 | 
8 | CC(C(=O)NCCNc1c2c(nc3ccccc13)CCCC2)c1ccc(-c2ccc(OCCCCO[N+](=O)[O-])cc2)c(F)c1 (stereo unspecified) | 10.1 | 1350 | 
9 | CC(C(=O)NCCNc1c2c(nc3ccccc13)CCCC2)c1ccc(-c2ccc(OCCCO[N+](=O)[O-])cc2)c(F)c1 (stereo unspecified) | 10 | 341 | 
10 | CC(C(=O)NCCCCNc1c2c(nc3ccccc13)CCCC2)c1ccc(-c2ccc(OCCCCO[N+](=O)[O-])cc2)c(F)c1 (stereo unspecified) | 7.7 | 641 | 
11 | CC(C(=O)NCCCNc1c2c(nc3ccccc13)CCCC2)c1ccc(-c2ccccc2)c(F)c1 (stereo unspecified) | 13.9 | 345 | 
12 | CC(C(=O)NCCNc1c2c(nc3ccccc13)CCCC2)c1ccc(-c2ccc(OCCO[N+](=O)[O-])cc2)c(F)c1 (stereo unspecified) | 9.9 | 183 | 
13 | CC(C(=O)NCCCCNc1c2c(nc3ccccc13)CCCC2)c1ccc(-c2ccccc2)c(F)c1 (stereo unspecified) | 11 | 193 | 
14 | CC(C(=O)NCCCCNc1c2c(nc3ccccc13)CCCC2)c1ccc(-c2ccc(OCCO[N+](=O)[O-])cc2)c(F)c1 (stereo unspecified) | 13.9 | 227 | 
15 | CC(C(=O)NCCCNc1c2c(nc3ccccc13)CCCC2)c1ccc(-c2ccc(OCCO[N+](=O)[O-])cc2)c(F)c1 (stereo unspecified) | 8.1 | 112 | 
